Measurements taken from patent US9896435B2, “N-pyrrolidinyl,N′-pyrazolyl-urea, thiourea, guanidine and cyanoguanidine compounds as TrkA kinase inhibitors” (Array BioPharma Inc., priority 2012, dated 2018).

How the values were obtained:
Assay in all cases: KinaseProfiler off-target kinase profiling
Assay type in all cases: biochemical
Conditions in all cases: 10 μM, ATP near Km
[1] = molecular target: MKNK2 (Homo sapiens (Human), UniProt Q9HBH9)
Method: (§1) Two representative compounds (Example 2, 14) of the invention were tested for off-target kinase activity at a concentration of 10 μM by Millipore, Inc. in their KinaseProfiler™ service against all the kinases available in their full kinase panel. These compounds were run in duplicate at a concentration of ATP near the Km for each individual kinase according to Millipore's specifications. The results are shown in Table B. Data are reported as percent of control (POC) and are the average of the two replicates.

[2] = molecular target: CAMK2b (Homo sapiens (Human), UniProt Q13554)
Method: as §1

[3] = molecular target: MSK1 (Homo sapiens (Human), UniProt O75582)
Method: as §1

[4] = molecular target: PDGFRbeta (Homo sapiens (Human), UniProt P09619)
Method: as §1

[5] = molecular target: Pim-2 (Homo sapiens (Human), UniProt Q9P1W9)
Method: as §1

[6] = molecular target: MAP4K2 (Homo sapiens (Human), UniProt Q12851)
Method: as §1

[7] = molecular target: SRPK1 (Homo sapiens (Human), UniProt Q96SB4)
Method: as §1

[8] = molecular target: Bmx (Homo sapiens (Human), UniProt P51813)
Method: as §1

[9] = molecular target: DAPK2 (Homo sapiens (Human), UniProt Q9UIK4)
Method: as §1

[10] = molecular target: PKCbetaI (Homo sapiens (Human), UniProt P05771)
Method: as §1

[11] = molecular target: KIT (Homo sapiens (Human), UniProt P10721)
Method: as §1

[12] = molecular target: JAK3 (Homo sapiens (Human), UniProt P52333)
Method: as §1

[13] = molecular target: MKK6 (Homo sapiens (Human), UniProt P52564)
Method: as §1

[14] = molecular target: ROCK-II (Homo sapiens (Human), UniProt O75116)
Method: as §1

[15] = molecular target: Plk2 (Homo sapiens (Human), UniProt Q9NYY3)
Method: as §1

[16] = molecular target: MLK1 (Homo sapiens (Human), UniProt P80192)
Method: as §1

[17] = molecular target: TrkB (Homo sapiens (Human), UniProt Q16620)
Method: as §1

[18] = molecular target: PKCgamma (Homo sapiens (Human), UniProt P05129)
Method: as §1

[19] = molecular target: mTOR (Homo sapiens (Human), UniProt P42345)
Method: as §1

[20] = molecular target: Met (Homo sapiens (Human), UniProt P08581)
Method: as §1

[21] = molecular target: Flt1 (Homo sapiens (Human), UniProt P17948)
Method: as §1

[22] = molecular target: PhKgamma2 (Homo sapiens (Human), UniProt P15735)
Method: as §1

[23] = molecular target: MINK (Homo sapiens (Human), UniProt Q8N4C8)
Method: as §1

[24] = molecular target: PTK5 (Homo sapiens (Human), UniProt P42685)
Method: as §1

[25] = molecular target: p38delta (Homo sapiens (Human), UniProt O15264)
Method: as §1

[26] = molecular target: RIPK2 (Homo sapiens (Human), UniProt O43353)
Method: as §1

[27] = molecular target: PKCepsilon (Homo sapiens (Human), UniProt Q02156)
Method: as §1

[28] = molecular target: ALK4 (Homo sapiens (Human), UniProt P36896)
Method: as §1

[29] = molecular target: Fyn (Homo sapiens (Human), UniProt P06241)
Method: as §1

[30] = molecular target: FGFR1 (Homo sapiens (Human), UniProt P11362)
Method: as §1

[31] = molecular target: NEK11 (Homo sapiens (Human), UniProt Q8NG66)
Method: as §1

[32] = molecular target: PKCtheta (Homo sapiens (Human), UniProt Q04759)
Method: as §1

[33] = molecular target: EphB1 (Homo sapiens (Human), UniProt P54762)
Method: as §1

[34] = molecular target: CDK2/cyclinA (Homo sapiens (Human), UniProt P24941)
Method: as §1

[35] = molecular target: CLK3 (Homo sapiens (Human), UniProt P49761)
Method: as §1

[36] = molecular target: PKD2 (Homo sapiens (Human), UniProt Q9BZL6)
Method: as §1

[37] = molecular target: CK1gamma2 (Homo sapiens (Human), UniProt P78368)
Method: as §1

[38] = molecular target: CLK2 (Homo sapiens (Human), UniProt P49760)
Method: as §1

[39] = molecular target: BrSK1 (Homo sapiens (Human), UniProt Q8TDC3)
Method: as §1

[40] = molecular target: DRAK1 (Homo sapiens (Human), UniProt Q9UEE5)
Method: as §1

Chain of JAK3 (P52333 whole entry): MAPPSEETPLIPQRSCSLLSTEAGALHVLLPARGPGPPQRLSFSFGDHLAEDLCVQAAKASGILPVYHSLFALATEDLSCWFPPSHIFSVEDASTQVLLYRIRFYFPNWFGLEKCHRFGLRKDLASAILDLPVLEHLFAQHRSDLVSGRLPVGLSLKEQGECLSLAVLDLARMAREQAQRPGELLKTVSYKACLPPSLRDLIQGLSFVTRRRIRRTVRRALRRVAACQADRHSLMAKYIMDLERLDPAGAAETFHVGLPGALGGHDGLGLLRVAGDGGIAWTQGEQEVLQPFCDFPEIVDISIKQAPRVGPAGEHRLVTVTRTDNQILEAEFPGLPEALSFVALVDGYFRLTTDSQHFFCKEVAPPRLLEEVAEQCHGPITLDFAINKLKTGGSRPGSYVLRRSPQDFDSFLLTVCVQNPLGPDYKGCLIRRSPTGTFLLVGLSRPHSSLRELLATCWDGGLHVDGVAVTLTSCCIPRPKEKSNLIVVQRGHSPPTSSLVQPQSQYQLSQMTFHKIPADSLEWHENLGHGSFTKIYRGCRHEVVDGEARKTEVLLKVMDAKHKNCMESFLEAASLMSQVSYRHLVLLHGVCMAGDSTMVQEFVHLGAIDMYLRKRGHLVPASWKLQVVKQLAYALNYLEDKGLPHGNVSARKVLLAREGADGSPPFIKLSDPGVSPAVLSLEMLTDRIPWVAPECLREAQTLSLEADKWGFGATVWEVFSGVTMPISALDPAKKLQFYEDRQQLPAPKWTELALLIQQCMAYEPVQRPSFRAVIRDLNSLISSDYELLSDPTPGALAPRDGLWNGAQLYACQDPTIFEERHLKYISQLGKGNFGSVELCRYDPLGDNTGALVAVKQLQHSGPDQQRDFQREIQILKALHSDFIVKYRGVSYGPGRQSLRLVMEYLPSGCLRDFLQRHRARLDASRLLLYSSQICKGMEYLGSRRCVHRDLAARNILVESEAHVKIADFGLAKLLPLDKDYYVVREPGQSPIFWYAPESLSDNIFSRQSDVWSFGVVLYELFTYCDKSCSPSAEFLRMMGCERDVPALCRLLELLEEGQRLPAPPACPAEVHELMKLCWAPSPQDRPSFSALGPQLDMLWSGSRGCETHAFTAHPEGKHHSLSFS
Chain of ALK4 (P36896 24-505): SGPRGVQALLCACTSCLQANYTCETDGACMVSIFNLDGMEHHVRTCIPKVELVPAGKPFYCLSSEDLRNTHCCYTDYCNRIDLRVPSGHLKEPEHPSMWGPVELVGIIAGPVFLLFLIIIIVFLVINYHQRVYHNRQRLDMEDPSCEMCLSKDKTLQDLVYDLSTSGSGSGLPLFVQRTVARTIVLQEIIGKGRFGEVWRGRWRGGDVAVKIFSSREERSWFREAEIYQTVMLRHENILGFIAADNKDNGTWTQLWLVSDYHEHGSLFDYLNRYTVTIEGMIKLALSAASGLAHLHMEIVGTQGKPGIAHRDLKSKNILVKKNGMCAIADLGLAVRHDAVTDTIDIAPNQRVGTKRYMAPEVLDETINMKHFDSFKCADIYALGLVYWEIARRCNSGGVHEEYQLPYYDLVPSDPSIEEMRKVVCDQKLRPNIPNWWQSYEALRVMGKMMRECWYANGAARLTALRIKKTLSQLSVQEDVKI
Chain of NEK11 (Q8NG66 whole entry): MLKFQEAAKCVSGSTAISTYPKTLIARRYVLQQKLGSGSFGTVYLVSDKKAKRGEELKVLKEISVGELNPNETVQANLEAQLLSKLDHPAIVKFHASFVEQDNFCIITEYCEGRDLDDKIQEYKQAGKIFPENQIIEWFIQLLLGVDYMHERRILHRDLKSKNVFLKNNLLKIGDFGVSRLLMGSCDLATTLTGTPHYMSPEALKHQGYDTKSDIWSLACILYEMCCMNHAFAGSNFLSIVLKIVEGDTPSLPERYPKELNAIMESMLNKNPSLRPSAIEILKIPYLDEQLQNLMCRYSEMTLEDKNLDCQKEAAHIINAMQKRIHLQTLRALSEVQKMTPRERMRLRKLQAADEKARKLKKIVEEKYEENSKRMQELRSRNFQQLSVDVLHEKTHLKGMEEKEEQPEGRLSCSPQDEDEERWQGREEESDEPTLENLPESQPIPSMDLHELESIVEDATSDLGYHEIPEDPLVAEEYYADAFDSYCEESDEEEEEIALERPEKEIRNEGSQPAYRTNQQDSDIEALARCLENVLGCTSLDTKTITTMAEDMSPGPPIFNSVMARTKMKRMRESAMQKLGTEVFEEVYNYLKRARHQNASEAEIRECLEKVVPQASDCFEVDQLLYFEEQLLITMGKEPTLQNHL
Chain of SRPK1 (Q96SB4 whole entry): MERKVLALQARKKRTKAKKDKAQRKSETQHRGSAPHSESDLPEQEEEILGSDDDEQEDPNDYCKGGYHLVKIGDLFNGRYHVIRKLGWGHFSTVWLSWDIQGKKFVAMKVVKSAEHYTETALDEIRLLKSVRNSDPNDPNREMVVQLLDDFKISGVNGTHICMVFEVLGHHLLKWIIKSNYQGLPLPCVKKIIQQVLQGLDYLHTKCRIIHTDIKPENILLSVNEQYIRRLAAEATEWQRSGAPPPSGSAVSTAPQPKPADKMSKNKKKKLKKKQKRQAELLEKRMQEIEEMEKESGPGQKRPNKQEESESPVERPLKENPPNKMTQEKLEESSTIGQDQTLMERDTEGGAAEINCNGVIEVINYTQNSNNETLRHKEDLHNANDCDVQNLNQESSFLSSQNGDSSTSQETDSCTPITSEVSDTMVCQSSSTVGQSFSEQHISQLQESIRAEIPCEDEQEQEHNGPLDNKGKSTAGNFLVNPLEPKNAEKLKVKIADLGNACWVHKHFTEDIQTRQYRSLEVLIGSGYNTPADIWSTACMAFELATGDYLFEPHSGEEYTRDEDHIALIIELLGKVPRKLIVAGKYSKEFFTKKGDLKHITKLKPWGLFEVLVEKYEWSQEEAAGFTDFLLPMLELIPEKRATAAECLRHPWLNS
Chain of ROCK-II (O75116 whole entry): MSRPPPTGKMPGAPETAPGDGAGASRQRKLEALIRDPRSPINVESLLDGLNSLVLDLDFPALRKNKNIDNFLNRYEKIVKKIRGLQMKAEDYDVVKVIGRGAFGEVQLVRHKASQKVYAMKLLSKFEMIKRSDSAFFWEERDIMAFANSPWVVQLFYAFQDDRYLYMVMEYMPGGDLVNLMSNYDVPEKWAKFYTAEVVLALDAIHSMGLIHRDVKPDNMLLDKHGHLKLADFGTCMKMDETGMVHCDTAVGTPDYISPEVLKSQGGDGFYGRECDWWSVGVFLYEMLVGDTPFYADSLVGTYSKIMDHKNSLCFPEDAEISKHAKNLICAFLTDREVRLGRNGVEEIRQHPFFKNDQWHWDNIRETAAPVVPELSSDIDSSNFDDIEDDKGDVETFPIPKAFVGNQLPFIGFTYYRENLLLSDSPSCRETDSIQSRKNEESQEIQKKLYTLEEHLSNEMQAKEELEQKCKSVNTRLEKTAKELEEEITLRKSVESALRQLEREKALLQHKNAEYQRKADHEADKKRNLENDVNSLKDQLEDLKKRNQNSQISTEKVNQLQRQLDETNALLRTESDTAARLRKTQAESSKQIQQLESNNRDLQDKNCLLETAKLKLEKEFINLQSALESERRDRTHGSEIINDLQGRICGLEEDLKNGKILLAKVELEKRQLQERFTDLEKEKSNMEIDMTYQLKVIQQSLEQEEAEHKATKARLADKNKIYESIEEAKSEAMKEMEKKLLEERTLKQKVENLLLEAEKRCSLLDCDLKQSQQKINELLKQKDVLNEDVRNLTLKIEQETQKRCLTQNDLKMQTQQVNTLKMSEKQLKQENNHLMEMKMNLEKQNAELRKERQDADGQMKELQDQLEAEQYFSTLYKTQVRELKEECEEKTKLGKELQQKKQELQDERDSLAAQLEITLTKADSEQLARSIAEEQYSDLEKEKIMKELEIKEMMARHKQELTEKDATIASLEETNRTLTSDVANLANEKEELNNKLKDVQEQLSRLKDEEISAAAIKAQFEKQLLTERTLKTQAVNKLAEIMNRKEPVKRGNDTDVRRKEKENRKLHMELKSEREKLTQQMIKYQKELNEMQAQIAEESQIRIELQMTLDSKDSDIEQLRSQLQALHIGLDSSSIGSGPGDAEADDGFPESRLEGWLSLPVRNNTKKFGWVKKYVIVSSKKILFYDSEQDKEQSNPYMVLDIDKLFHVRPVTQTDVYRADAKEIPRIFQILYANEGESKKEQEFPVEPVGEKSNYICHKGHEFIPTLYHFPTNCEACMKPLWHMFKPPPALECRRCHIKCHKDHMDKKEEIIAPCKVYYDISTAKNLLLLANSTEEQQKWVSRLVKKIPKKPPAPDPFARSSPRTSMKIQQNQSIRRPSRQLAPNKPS

| Avg POC [1] | Avg POC [2] | Avg POC [3] | Avg POC [4] | Avg POC [5] | Avg POC [6] | Avg POC [7] | Avg POC [8] | Avg POC [9] | Avg POC [10] | Avg POC [11] | Avg POC [12] | Avg POC [13] | Avg POC [14] | Avg POC [15] | Avg POC [16] | Avg POC [17] | Avg POC [18] | Avg POC [19] | Avg POC [20] | SMILES | also measured |
| --- | --- | --- | --- | --- | --- | --- | --- | --- | --- | --- | --- | --- | --- | --- | --- | --- | --- | --- | --- | --- | --- |
| 101 POC | 90.5 POC | 102.5 POC | 108.5 POC | 86.5 POC | 105.5 POC | 97.5 POC | 115.5 POC | 109 POC | 95 POC | 101.5 POC | 103.5 POC | 106.5 POC | 102.5 POC | 99.5 POC | 103.5 POC | 1.5 POC | 100.5 POC | 108.5 POC | 106 POC | COCCN1C[C@@H](NC(=O)Nc2c(C)c(-c3ccnc(C)c3)nn2-c2ccccc2)[C@H](c2ccc(F)c(F)c2)C1 [Example 2, 1-((3S,4R)-4-(3,4-difluorophenyl)-1-(2-methoxyethyl)pyrrolidin-3-yl)-3-(4-methyl-3-(2-methylpyridin-4-yl)-1-phenyl-1H-pyrazol-5-yl)urea] | Avg POC [21]: 86 POC; Avg POC [22]: 90 POC; Avg POC [23]: 98 POC; Avg POC [24]: 108 POC; Avg POC [25]: 107.5 POC; Avg POC [26]: 105.5 POC; Avg POC [27]: 103.5 POC; Avg POC [28]: 112.5 POC; Avg POC [29]: 97 POC; Avg POC [30]: 106.5 POC; Avg POC [31]: 97 POC; Avg POC [32]: 98.5 POC; Avg POC [33]: 93.5 POC; Avg POC [34]: 111 POC; Avg POC [35]: 94 POC; Avg POC [36]: 101.5 POC; Avg POC [37]: 73.5 POC; Avg POC [38]: 125 POC; Avg POC [39]: 104 POC; Avg POC [40]: 86.5 POC |
| 101 POC | 93 POC | 106 POC | 120 POC | 103.5 POC | 99.5 POC | 109.5 POC | 105.5 POC | 107 POC | 101 POC | 101.5 POC | 101 POC | 99.5 POC | 93.5 POC | 102 POC | 102 POC | 4.5 POC | 89.5 POC | 102.5 POC | 96.5 POC | COCCN1C[C@@H](NC(=O)Nc2c(C)c(-c3cnc(C)nc3)nn2-c2ccccc2)[C@H](c2cc(F)cc(F)c2)C1 [Example 14, 1-((3S,4R)-4-(3,5-difluorophenyl)-1-(2-methoxyethyl)pyrrolidin-3-yl)-3-(4-methyl-3-(2-methylpyrimidin-5-yl)-1-phenyl-1H-pyrazol-5-yl)urea] | Avg POC [21]: 81 POC; Avg POC [22]: 88 POC; Avg POC [23]: 89.5 POC; Avg POC [24]: 91 POC; Avg POC [25]: 102.5 POC; Avg POC [26]: 93.5 POC; Avg POC [27]: 114.5 POC; Avg POC [28]: 115 POC; Avg POC [29]: 91.5 POC; Avg POC [30]: 101.5 POC; Avg POC [31]: 91 POC; Avg POC [32]: 98 POC; Avg POC [33]: 97.5 POC; Avg POC [34]: 113.5 POC; Avg POC [35]: 94 POC; Avg POC [36]: 108 POC; Avg POC [37]: 53 POC; Avg POC [38]: 111.5 POC; Avg POC [39]: 94 POC; Avg POC [40]: 101.5 POC |
